Laboratory results taken from US9340574B2, “Inhibitors of protein tyrosine phosphatases” (Indiana University Research and Technology Corporation, priority 2012, dated 2016).

Legend:
[1] = target: VHX (Homo sapiens (Human), UniProt Q9NRW4); assay: pNPP hydrolysis enzyme assay, VHX; format: biochemical
Method: (§1) Enzyme kinetic assay. PTP activity was assayed using p-nitrophenyl phosphate (pNPP) as a substrate in 3,3-dimethylglutarate buffer (50 mM 3,3-dimethylglutarate, pH 7.0, 1 mM EDTA, 150 mM NaCl, 2 mM DTT, 0.1 mg/mL BSA) at 25° C. The assays were performed in 96-well plates. Normally, to determine the IC50 values, the reaction was initiated by the addition of enzyme (final concentration at 10 nM) to a reaction mixture (0.2 mL) containing 2 mM (Km for the substrate) pNPP with various concentrations of inhibitors. The reaction rate was measured using a SpectraMax Plus 384 Microplate Spectrophotometer (Molecular Devices). To determine the mode of inhibition, the reactions were initiated by the addition of PTP-MEG2 to the reaction mixtures (0.2 mL) containing various concentrations of pNPP with different concentrations of the inhibitor 7. Data were fitted using SigmaPlot Enzyme Kinetics Module (Systat Software, Inc.).

[2] = tested on: diet-induced obese C57BL/6 mice; assay: Pyruvate tolerance test in diet-induced obese mice; format: in vivo, mouse; conditions: 5 mg/kg i.p. twice a day
Method: C57BL/6J mice were fed a high-fat diet for 10 weeks before Compound 7 or vehicle was injected intraperitoneally twice a day at a dose of 5 mg/kg body weight. FIG. 5A depicts insulin tolerance tests (ITT) performed on Day 7 by injecting intraperitoneally a bolus of 0.75 unit/kg of human regular insulin. […] FIG. 5C depicts glucose tolerance tests (GTT) carried out on Day 9 after a bolus of 1 g/kg glucose was injected intraperitoneally. […] FIG. 5E depicts pyruvate tolerance tests (PTT) performed on Day 12 after an injection of 2 g/kg pyruvate solution. […] At the end of 2-week injections of Compound 7, animals were fasted overnight and stimulated with a bolus of 1 unit of human regular insulin or saline via vena cava. Three minutes later, liver, skeletal muscle, and white adipose tissue (WAT) were collected sequentially for insulin signaling analysis. FIG. 5G depicts the phosphorylation of Tyr1162/1163 in insulin receptor (IR) and Ser473 phosphorylation in Akt kinases and the corresponding proteins in the liver, skeletal muscle, and white adipose tissue (WAT) were analyzed by immunoblots.
To this end, we intraperitoneally injected Compound 7 into diet-induced obese C57BL/6 mice at a dose of 5 mg/kg twice a day. […] After 7 days of injections, we performed insulin tolerance tests to measure insulin sensitivity in vehicle and Compound 7 treated mice.

[3] = target: PTP-PEST (Homo sapiens (Human), UniProt Q05209); assay: pNPP hydrolysis enzyme assay, PTP-PEST; format: biochemical
PTP-PEST, sequence (Q05209 whole entry, species assumed): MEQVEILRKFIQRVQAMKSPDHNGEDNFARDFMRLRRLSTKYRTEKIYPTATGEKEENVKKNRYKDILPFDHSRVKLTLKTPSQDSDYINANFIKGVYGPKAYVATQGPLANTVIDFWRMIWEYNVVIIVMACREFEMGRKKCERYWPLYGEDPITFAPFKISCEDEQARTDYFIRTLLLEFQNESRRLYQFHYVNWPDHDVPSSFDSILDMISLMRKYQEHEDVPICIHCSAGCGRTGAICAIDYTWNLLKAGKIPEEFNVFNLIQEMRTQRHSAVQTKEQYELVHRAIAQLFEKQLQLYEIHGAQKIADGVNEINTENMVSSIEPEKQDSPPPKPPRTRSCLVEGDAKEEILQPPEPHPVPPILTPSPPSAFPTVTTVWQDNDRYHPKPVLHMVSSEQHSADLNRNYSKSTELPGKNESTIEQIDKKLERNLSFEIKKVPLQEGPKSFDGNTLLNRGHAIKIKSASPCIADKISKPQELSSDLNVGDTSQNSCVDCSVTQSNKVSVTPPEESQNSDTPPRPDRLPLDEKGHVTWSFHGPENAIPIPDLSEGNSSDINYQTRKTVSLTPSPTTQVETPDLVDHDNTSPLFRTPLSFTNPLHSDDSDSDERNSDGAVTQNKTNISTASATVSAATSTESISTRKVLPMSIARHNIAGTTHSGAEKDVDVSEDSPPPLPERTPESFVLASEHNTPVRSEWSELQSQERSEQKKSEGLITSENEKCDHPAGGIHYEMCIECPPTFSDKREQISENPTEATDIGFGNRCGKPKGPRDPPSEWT
Method: as §1

[4] = target: HePTP (Homo sapiens (Human), UniProt P35236); assay: pNPP hydrolysis enzyme assay, HePTP; format: biochemical
HePTP, sequence (P35236 whole entry, species assumed): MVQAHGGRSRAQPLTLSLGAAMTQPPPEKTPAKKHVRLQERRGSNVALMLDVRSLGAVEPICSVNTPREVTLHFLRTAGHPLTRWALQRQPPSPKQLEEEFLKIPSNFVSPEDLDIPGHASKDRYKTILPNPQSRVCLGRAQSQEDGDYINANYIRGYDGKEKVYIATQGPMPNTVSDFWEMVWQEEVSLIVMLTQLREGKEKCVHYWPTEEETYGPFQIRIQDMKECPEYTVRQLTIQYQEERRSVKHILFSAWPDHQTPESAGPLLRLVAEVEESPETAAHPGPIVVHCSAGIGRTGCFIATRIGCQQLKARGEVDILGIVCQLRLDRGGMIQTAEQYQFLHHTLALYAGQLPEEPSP
Method: as §1

[5] = target: VHR (Homo sapiens (Human), UniProt P51452); assay: pNPP hydrolysis enzyme assay, VHR; format: biochemical
VHR, sequence (P51452 whole entry, species assumed): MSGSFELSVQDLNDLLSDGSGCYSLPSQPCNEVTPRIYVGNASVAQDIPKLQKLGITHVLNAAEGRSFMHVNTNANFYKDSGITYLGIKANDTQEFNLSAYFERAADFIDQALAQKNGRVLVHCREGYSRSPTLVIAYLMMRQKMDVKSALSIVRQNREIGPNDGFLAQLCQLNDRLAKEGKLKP
Method: as §1

VHX, sequence (Q9NRW4 whole entry): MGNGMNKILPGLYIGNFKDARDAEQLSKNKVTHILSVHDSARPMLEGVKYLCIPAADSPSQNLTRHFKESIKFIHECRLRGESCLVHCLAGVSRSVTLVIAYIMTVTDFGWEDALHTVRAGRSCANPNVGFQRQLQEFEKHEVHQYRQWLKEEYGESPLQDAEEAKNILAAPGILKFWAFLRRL

Which results are given for `COc1cc(CC(=O)NCC(NC(=O)C(CCCNC(=O)c2cccc(I)c2)NC(=O)C(Cc2ccc(C(F)(F)P(=O)(O)O)cc2)NC(=O)c2ccc(C)c(Br)c2)C(N)=O)ccc1O` (stereo not drawn) [Compound 7]?
IC50 [1]: > 10000 nM; hepatic gluconeogenesis in pyruvate tolerance test ([2]; Day 12): significant suppression of hepatic gluconeogenesis; better pyruvate tolerance (AUC) ([2]; Day 12, vs vehicle): 25%; IC50 [3]: > 10000 nM; IC50 [4]: > 10000 nM; IC50 [5]: > 10000 nM
